Measured values: patent US20240335508A1, “HYBRID GOLD NANOPARTICLE-LIPID NANOPARTICLES AND METHODS OF USE AND PRODUCTION THEREOF” (THE BOARD OF REGENTS OF THE UNIVERSITY OF OKLAHOMA, priority 2023, published 2024)

Test system: TOV-112D cells
Test: DOX AuNSV cytotoxicity, MTS assay
Type: cell-based
Conditions: 0.5 and 0.25 μg/mL DOX
Protocol: TOV-112D cells were cultured in RPMI 1640 media containing 10% FBS and 1% penicillin-streptomycin at 37° C. with 5% CO2. Cells were seeded on 96-well plates in 100 μL of media at 7,500 cells per well. The next day, cells were treated in triplicate with NSVs, AuNSVs, DOX, DOX NSVs, and DOX AuNSVs at concentrations of 0.5, 0.25, 0.1, and 0.05 μg/mL DOX equivalence. After 24, 48, and 72 hours of treatment, 10 μL of CellTiter 96® AQueous One Solution Cell Proliferation Assay (MTS) (Promega, Madison, WI) was added to each well and incubated for 3-4 hours. After incubation, the well absorbance was measured at 490 nm with a SPECTROstar plate reader with cell viability calculated from the ratio of absorbance between untreated controls and each treatment group.

Structure (SMILES): COc1cccc2c1C(=O)c1c(O)c3c(c(O)c1C2=O)C[C@@](O)(C(=O)CO)C[C@@H]3O[C@H]1C[C@H](N)[C@H](O)[C@H](C)O1 [DOX, Doxorubicin]
- Cell viability: decreased cell viability faster than either the DOX NSV or DOX AuNSV
